Measured values as given in patent publication US12285434B2, “Therapeutic, preventive, or improvement agent for inflammatory disease and allergic disease” (The University of Tokyo, priority 2018, dated 2025).

Columns and labels:
HUVECs = experiment: Endothelial barrier function: transendothelial electrical resistance (TER); format: cell-based, human
Method: (§1) In Examples 4 to 6, human umbilical vein endothelial cells (hereinafter, sometimes referred to as “HUVECs”, manufactured by Lonza) were cultured in EGM-2 (manufactured by Lonza K.K.). These cells (passages 4 to 9) were used for experiments after 4-hour starvation in EBM-2 (manufactured by Lonza K.K.) containing 2% FBS.
The in vitro endothelial barrier function was evaluated by measuring the transendothelial electrical resistance (hereinafter, sometimes referred to as “TER”) of the HUVECs prepared in the above item (1) over time. Specifically, the transendothelial electrical resistance was measured using an xCELLigence Real-Time Cell Analyzer DP system (manufactured by Roche). The system monitors changes in TER across an interdigitated microelectrode at the bottom of tissue culture E-plates (manufactured by Roche). The HUVECs (8,000 cells) were plated on the E-plates and incubated until confluent. Then, the following operation (a) or (b) was performed.
(a) Each reagent was added to plates on which the HUVECs were cultured, so as to give a vehicle, 1 U/mL thrombin, 1 μM forskolin, or 0.1 μM or 0.3 μM 5,6-DiHETE (FIGS. 4A and 4B).
(b) A vehicle or […] was added to plates on which the HUVECs were cultured, so as to attain 10 μM. […] Thirty (30) minutes after the addition, 10 μM histamine was added to each plate 30 minutes after the addition (FIGS. 4C and 4D).
In the above operations (a) and (b), the TER was measured every 60 seconds. For normalization, the cell index value at each time point is shown as a ratio relative to the initial value. The maximum normalized cell index after stimulation was quantified and represented as maximal response. Note that it is known that the disruption of the endothelial barrier function lowers the TER, but that the enhancement of the endothelial barrier function increases the TER.

mouse aortae = experiment: Measurement of vascular contraction of aorta (aortic ring specimens); details: cumulative addition 0.001, 0.01, 0.1 and 1 μM
Method: After excision of the thoracic aortae from untreated mice and removal of fat and connective tissue, the aortae were cut into rings to prepare aortic ring specimens. The ring specimens were immersed in a liquid tank filled with a normal nutrient solution (physiological saline solution containing 136.9 mM NaCl, 5.4 mM KCl, 5.5 mM glucose, 23.8 mM NaHCO3, 1.5 mM CaCl2, 1.0 mM MgCl2 and 0.01 mM EDTA), and two stainless hooks were penetrated through the lumens of the ring specimens. One end of each of the stainless hooks was fixed, and the other end thereof was connected to a force-displacement transducer (T7-30-240, manufactured by Orientec Co., Ltd.) connected to a strain amplifier (3134 strain AMPL, manufactured by Yokogawa Test & Measurement Corporation). Then, the following operation (a), (b) or (c) was performed.
(a) Norepinephrine (manufactured by Sigma) was cumulatively added into the liquid tank containing the ring specimens after stabilization of each contraction (every about 30 minutes) so as to attain 0.001 μM, 0.01 μM, 0.1 μM and 1 μM, and this group was designated as a “norepinephrine-administered group” (n=4) (FIG. 3A). 5,6-DiHETE was cumulatively added into the liquid tank containing the ring specimen after stabilization of each contraction (every about 30 minutes) so as to attain 0.001 μM, 0.01 μM, 0.1 μM and 1 μM, and this group was designated as a “5,6-DiHETE-administered group” (n=4) (FIG. 3A).
(b) Norepinephrine was added into the liquid tank containing the ring specimens so as to attain 0.3 μM, and precontraction was induced by administration of norepinephrine (FIG. 3B). Then, after the contraction by the administration of norepinephrine was stabilized, acetylcholine (manufactured by Sigma) was cumulatively added after stabilization of each relaxation reaction (every about 15 minutes) so as to attain 0.03 μM, 0.1 μM, 0.3 μM and 1 μM, and this group was designated as an “acetylcholine-administered group” (FIG. 3B). After the contraction by the administration of norepinephrine was stabilized, 5,6-DiHETE was cumulatively added every about 15 minutes so as to attain 0.001 μM, 0.01 μM, 0.1 μM and 1 μM, and this group was designated as a “5,6-DiHETE-administered group” (n=4) (FIG. 3B).
(c) In order to verify the effect of 5,6-DiHETE on the acetylcholine administration, norepinephrine was added into the liquid tank containing the ring specimens so as to attain 1 μM. After the contraction by the administration of norepinephrine was stabilized, 5,6-DiHETE or a vehicle (solvent alone) was added so as to attain 1 μM. […]
In the above operations (a) to (c), tension (contractile force) generated in the aortic ring specimens was measured isometrically over time using the above force-displacement transducer under a resting tension of 3 mN, and recorded.

[1] = test system: histamine-induced vascular permeability in mouse ears; experiment: Modified Miles assay: histamine-induced vascular hyperpermeability (Evans blue extravasation); format: in vivo, mouse (C57BL/6); details: 15 minutes, before 400 μg histamine
Method: Fifteen (15) minutes after the intracutaneous injection, a vehicle (80% acetone) or histamine (400 μg, manufactured by Molecular Probes) was percutaneously administered to the ventral surface of the ears. To evaluate vascular permeability, Evans blue (50 mg/kg, manufactured by Sigma) was injected intravenously 5 minutes after the administration of histamine. The mice were then euthanized by cervical dislocation 30 minutes after the injection of Evans blue. The ears were dissected, dried at 55° C., and weighed. Extravasated Evans blue present in the ears was extracted in formamide (manufactured by Molecular Probes), and quantified spectrophotometrically (manufactured by PerkinElmer Japan Co., Ltd.) at a wavelength of 610 nm.

anaphylaxis model mice = experiment: Histamine-induced anaphylaxis: blood pressure and body temperature; format: in vivo, mouse (C57BL/6); details: 200 mg/kg intravenously 15 minutes before histamine 50 mg/kg
Method: Histamine (50 mg/kg) lysed in a physiological saline solution was intravenously administered to C57BL/6 strain mice (male, 8 to 12 weeks old) to prepare anaphylaxis model mice (hereinafter, sometimes referred to as “anaphylaxis group”). […] L-NAME is an NO synthesis inhibitor. As indices of anaphylactic symptoms, a body temperature decrease and a blood pressure decrease were observed.

[2] = test system: DSS-induced colitis model mice; experiment: DSS-induced colitis: histologic score and colon edema (wet/dry weight ratio); format: in vivo, mouse (C57BL/6); details: Day 14; 1 mg/kg/day intraperitoneally on Days 9, 11 and 13
Text: (§2) C57BL/6 strain mice (male, 8 to 12 weeks old) were fed with water containing 2% dextran sodium sulfate (manufactured by MP Bio, hereinafter sometimes referred to as “DSS”) for 4 days to prepare colitis model mice (hereinafter, sometimes referred to as “colitis group” in Examples 7 to 10). The mice taken with DSS for 4 days were fed with normal water from Day 5. The DSS intake start date was defined as Day 1 of the test, and the day before the DSS intake start date was defined as Day 0 of the test. In addition, a group in which C57BL/6 strain mice (male, 8 to 12 weeks old) were fed with normal water was defined as a “healthy group” (the same applies to Examples 8 to 10).
(§3) To investigate the role of 5,6-DiHETE in the healing phase, the colitis model mice prepared in Example 7(1) were intraperitoneally injected with 5,6-DiHETE (manufactured by Cayman Chemical) (50 μg/kg/day) or HC-067047 (manufactured by Cayman Chemical) (1 mg/kg/day) on Days 9, 11 and 13 of the test (hereinafter, sometimes referred to as “5,6-DiHETE-administered group” and “HC-067047-administered group,” respectively, in Examples 9 and 10). HC-067047 is known to inhibit an increase of calcium ion concentration in endothelial cells.
Distal colon sections on Day 14 of the test in the healthy group, colitis group, 5,6-DiHETE-administered group and HC-067047-administered group were fixed in 4% paraformaldehyde for 24 hours, embedded in paraffin and cut into 2 μm-thick sections. Hematoxylin staining and eosin staining of these sections were performed according to a conventional method. The histologic score was then decided according to the description of Kruschewski M. et al., Digestive Diseases and Sciences, 46: 2336-2343 (2001) to evaluate the colitis severity.
The wet/dry weight ratio was used as an index of colon edema (Rachmilewitz D. et al., Gastroenterology, 97: 326-337(1989)). Specifically, the distal colon was collected, and the wet weight was measured. The distal colon was then dried at 60 C for 24 hours, and, thereafter, the dry weight was measured.

[3] = test system: DSS-induced colitis model mice; experiment: DSS-induced colitis: colitis severity (body weight, fecal score, colon length); format: in vivo, mouse (C57BL/6); details: 1 mg/kg/day intraperitoneally on Days 9, 11 and 13
Text: as §2
In order to evaluate colitis severity, the fecal condition was evaluated and the body weight was measured daily for the colitis model mice and healthy group prepared in the above item (1). The fecal condition was evaluated based on the following five-grade fecal scores. Specifically, the fecal scores were 0: normal; 1: soft but still formed; 2: very soft; 3: diarrhea; and 4: bloody feces. In addition, the colon length was measured as an index of the colitis severity.
as §3
The colitis severity was determined according to the index and criteria described in Example 7(2).

NO production in HUVECs = experiment: Histamine-induced NO production (nitrite and nitrate); format: cell-based, human; details: pretreatment 10 μM, 15 minutes; histamine 10 μM
Method: as §1
The HUVECs were washed three times with HEPES and incubated in HEPES supplemented with 1 mM L-arginine and 10 μM tetrahydrobiopterin. After equilibration for 30 minutes, the medium was exchanged, and the cells were incubated for additional 30 minutes. […] The conditioned media before and after the stimulation (100 μL each) were collected and centrifuged in each amount of 300 g for 3 minutes. The supernatants were collected, and used to measure nitrite and nitrate, as stable metabolites of NO, by an ENO-20 NOx analyzer (manufactured by Eicom Corporation). The degrees of increases of nitrite and nitrate levels after the stimulation were normalized with cellular protein contents.

Q: With thrombin as the compound, how does the “change of TER” value (HUVECs; 1 U/mL, alone) read?
A: significantly lowered the TER

Q: How did the contraction of aorta (mouse aortae) turn out when `NC[C@H](O)c1ccc(O)c(O)c1` [norepinephrine, reference compound] was run?
A: contracted in a concentration-dependent manner

Q: Which “effect on histamine-induced dye extravasation” value (“effect” below) ([1]; pretreatment 0.1 μg/ear) does the source give for `CC/C=C\CC(O)/C=C/C=C\CCCCCCCC(=O)O` (stereo not drawn) [13-HOTrE] here?
A: did not affect histamine-induced dye extravasation

Q: How did the blood pressure (anaphylaxis model mice) turn out when `COC(=O)[C@@H](N)CCCNC(=N)N[N+](=O)[O-]` [L-NAME] was run?
A: 106.6±8.8 mmHg

Q: What about the body temperature decrease (anaphylaxis model mice) of the same compound?
A: −0.8±0.2 °C

Q: What does the source list for `Cc1c(C(=O)Nc2cccc(C(F)(F)F)c2)cc(-c2ccccc2)n1CCCN1CCOCC1` [HC-067047, reference compound]?
A: colon edema, wet/dry weight ratio [2]: 5.0±0.1; histologic score of colitis [2]: 2.8±0.4; recovery from colitis as compared with the colitis group [3]: promoted in recovery from colitis

Q: For `CC/C=C\C/C=C\C/C=C\C/C=C\C=C\C(O)C/C=C\CCC(=O)O` (stereo not drawn) [7-HDoHE], which “effect” value ([1]; pretreatment 0.1 μg/ear) is on record?
A: did not affect histamine-induced dye extravasation

Q: What does the source list for `CN(C)CCOC(c1ccccc1)c1ccccc1` [diphenhydramine, reference compound]?
A: histamine-induced NO production (NO production in HUVECs): abrogated; histamine-induced reduction of TER (HUVECs; 10 μM pretreatment before histamine 10 μM): abrogated

Q: `[Cl][La]([Cl])[Cl]` [LaCl3] was tested. Which “effect” value ([1]; pretreatment 250 μg/ear) did it give?
A: significantly inhibited dye extravasation
